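Interpolation was linear, between the two tested concentrations surrounding the appropriate level; five concentrations were tested over 48 hours in 96-well plates. GI50: concentration for 50% inhibition of growth.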 Calls of active or inactive are those of the source. Cut-off read from the data, not from the text of the source: active = GI50 up to about 1.1 µM and inactive = higher.
How the values were obtained:
Test in all cases: DTP human tumour cell line panel, 48 h
[1] = system: TK-10
[2] = system: SF-295
[3] = system: SF-539
[4] = system: PC-3
[5] = system: Hs-578T
[6] = system: 786-0
[7] = system: U-251
[8] = system: COLO 205
[9] = system: MCF7
[10] = system: SK-MEL-28
[11] = system: SN12C
[12] = system: SK-MEL-2
[13] = system: OVCAR-3
[14] = system: MDA-MB-435
[15] = system: MOLT-4
[16] = system: UO-31
[17] = system: Malme-3M
[18] = system: SW-620
[19] = system: SR
[20] = system: K562

Measured: GI50

Cc1nc2c(O)nc3ccccc3c2o1
inactive: [1] > 100 µM | [2] > 100 µM | [3] > 100 µM | [4] > 100 µM | [5] > 100 µM | [6] > 100 µM | [7] > 100 µM | [8] > 100 µM | [9] > 100 µM | [10] > 100 µM | [11] > 100 µM | [12] > 100 µM | [13] > 100 µM | [14] > 100 µM | [15] > 10 µM | [16] > 100 µM | [17] > 100 µM | [18] > 100 µM

CCOC(=O)C(NC(=O)OC(C)(C)C)C(=O)OCC
inactive: [1] > 100 µM | [19] > 100 µM | [4] > 100 µM | [5] > 100 µM | [20] > 100 µM | [6] > 100 µM | [7] > 100 µM | [8] > 100 µM | [9] > 100 µM | [10] > 100 µM | [11] > 100 µM | [12] > 100 µM | [14] > 100 µM | [15] > 100 µM | [16] > 100 µM | [18] > 100 µM

COc1c(Br)cc2ccccc2c1-c1c(OC)c(Br)cc2ccccc12
inactive: [1] > 100 µM | [2] > 100 µM | [3] > 100 µM | [4] 95.9 µM | [5] > 100 µM | [20] 38.9 µM | [6] > 100 µM | [7] > 100 µM | [8] > 100 µM | [9] 49.9 µM | [10] > 100 µM | [12] > 100 µM | [13] > 100 µM | [14] > 100 µM | [15] 6.32 µM | [16] > 100 µM | [18] > 100 µM

c1ncn(C23C4C5C6C4C2C6C53)n1 (stereo not drawn)
inactive: [1] > 100 µM | [2] > 100 µM | [3] > 100 µM | [19] > 100 µM | [4] > 100 µM | [5] > 100 µM | [20] > 100 µM | [6] > 100 µM | [7] > 100 µM | [8] > 100 µM | [9] > 100 µM | [10] > 100 µM | [11] > 100 µM | [12] > 100 µM | [14] > 100 µM | [15] > 100 µM | [18] > 100 µM

CN1Cc2ccccc2S(=O)(=O)n2cccc2C1=O
inactive: [1] > 100 µM | [2] > 100 µM | [3] > 100 µM | [19] 8.41 µM | [4] > 100 µM | [5] > 100 µM | [20] > 100 µM | [6] > 100 µM | [7] > 100 µM | [8] > 100 µM | [9] > 100 µM | [10] > 100 µM | [11] > 100 µM | [12] > 100 µM | [13] > 100 µM | [14] > 100 µM | [15] > 100 µM | [16] > 100 µM | [18] > 100 µM

O=C1CC2(CCNCC2)C(=O)N1N1CCOCC1
inactive: [1] > 100 µM | [2] > 100 µM | [3] > 100 µM | [19] > 100 µM | [4] > 100 µM | [5] > 100 µM | [20] > 100 µM | [6] > 100 µM | [7] > 100 µM | [8] > 100 µM | [9] > 100 µM | [10] > 100 µM | [11] > 100 µM | [12] > 100 µM | [13] > 100 µM | [15] > 100 µM | [16] > 100 µM | [17] > 100 µM | [18] > 100 µM

N#CCCN(CCC#N)c1ccc(C(=N/c2ccc(Cl)cc2)/N=N/c2ccccc2)cc1
inactive: [1] 88.5 µM | [2] 10.9 µM | [3] > 100 µM | [4] > 100 µM | [5] > 100 µM | [20] > 100 µM | [6] > 100 µM | [7] > 100 µM | [8] 48.8 µM | [9] > 100 µM | [10] > 100 µM | [11] > 100 µM | [13] 66.7 µM | [14] 44.9 µM | [15] > 100 µM | [16] 23.8 µM | [18] > 100 µM

C/C(=N\n1c(Cc2ccccc2)n[nH]c1=O)c1ccc([N+](=O)[O-])cc1
inactive: [1] > 100 µM | [2] 91.8 µM | [4] > 100 µM | [5] 64.4 µM | [20] > 100 µM | [6] > 100 µM | [7] > 100 µM | [8] > 100 µM | [9] 21 µM | [10] > 100 µM | [11] > 100 µM | [12] > 100 µM | [13] > 100 µM | [14] > 100 µM | [15] 52.8 µM | [16] > 100 µM | [17] > 100 µM | [18] > 100 µM

CC(Oc1ccccc1Cl)C(=O)NN1C(=O)CSC1c1ccccc1 (stereo not drawn)
inactive: [1] > 100 µM | [2] 68.7 µM | [3] > 100 µM | [19] 21.9 µM | [4] > 100 µM | [5] > 100 µM | [20] 32.7 µM | [6] 74.5 µM | [7] > 100 µM | [8] > 100 µM | [9] 92.3 µM | [10] > 100 µM | [11] 74.6 µM | [12] > 100 µM | [13] > 100 µM | [14] 75.3 µM | [15] 29.8 µM | [16] > 100 µM | [18] > 100 µM

Cc1ccc(S(=O)(=O)NN=C2C(C)(C)CC2(C)C)cc1
inactive: [1] > 100 µM | [2] > 100 µM | [3] > 100 µM | [4] > 100 µM | [5] > 100 µM | [20] 76.2 µM | [6] > 100 µM | [7] > 100 µM | [8] > 100 µM | [9] > 100 µM | [10] > 100 µM | [11] > 100 µM | [12] > 100 µM | [13] > 100 µM | [14] > 100 µM | [15] > 100 µM | [16] > 100 µM | [17] > 100 µM | [18] > 100 µM

CCOC(=O)/C1=C(\C)N(c2ccc(C)cc2)C(=O)c2ccccc2C(=O)c2c(O)ccc(O)c21
inactive: [1] 26.2 µM | [2] 16.9 µM | [3] 26.5 µM | [4] 24.7 µM | [5] 29.2 µM | [20] 20.6 µM | [6] 18.2 µM | [7] 22.4 µM | [8] 20.1 µM | [9] 15.2 µM | [11] 25.9 µM | [12] 28.8 µM | [13] 17.8 µM | [14] 18.5 µM | [15] 14.5 µM | [16] 27.7 µM | [17] 18.1 µM | [18] 27.6 µM

Cc1cn(CCCCC2=NCCCN2)c(=O)[nH]c1=O
inactive: [1] 9.18 µM | [2] 46.5 µM | [19] > 28.9 µM | [4] > 26.7 µM | [5] > 34.4 µM | [20] > 24.6 µM | [6] > 23.9 µM | [7] > 30.5 µM | [8] > 31.1 µM | [9] > 26.3 µM | [10] > 26.2 µM | [11] > 100 µM | [12] > 26.9 µM | [13] > 26.7 µM | [14] > 26.7 µM | [15] > 26.7 µM | [16] > 24.8 µM | [18] > 28.3 µM

COc1ccc(C2c3cc4c(cc3OC(N3CCOCC3)C2C)OCO4)c(OC)c1OC (stereo not drawn)
inactive: [1] 15.5 µM | [2] 5.97 µM | [3] 12.6 µM | [19] 9.06 µM | [4] 13.6 µM | [5] 2.88 µM | [20] 4.34 µM | [6] 17.1 µM | [8] 14.6 µM | [9] 10.9 µM | [10] 14.2 µM | [11] 26.3 µM | [12] 12.2 µM | [13] 11 µM | [14] 2.51 µM | [15] 10.6 µM | [16] 6.81 µM | [18] 11.1 µM

CC(C)=CCC/C(C)=C/C=C/C(C)=C/C=C/C(C)=C/C=C/C=C(C)/C=C/C=C(C)/C=C/[C@H]1C(C(C)(C)O)CC[C@]1(C)O (stereo partly drawn)
inactive: [1] 37.3 µM | [2] 32.7 µM | [3] 29.2 µM | [19] 23 µM | [4] 30.3 µM | [5] 22.1 µM | [20] 21.4 µM | [6] 21.4 µM | [7] 20.7 µM | [9] 16.4 µM | [10] 20.5 µM | [12] 37 µM | [13] 18.8 µM | [14] 23 µM | [15] 20.7 µM | [16] 20.2 µM | [18] 25.8 µM

O=[N+]([O-])c1ccc(/N=N/N2CCCC2)cc1
inactive: [1] > 100 µM | [2] > 100 µM | [3] > 100 µM | [19] 79.4 µM | [4] > 100 µM | [5] > 100 µM | [20] > 100 µM | [6] > 100 µM | [7] > 100 µM | [8] > 100 µM | [9] > 100 µM | [11] > 100 µM | [12] > 100 µM | [13] > 100 µM | [14] > 100 µM | [15] > 100 µM | [16] > 100 µM | [18] > 100 µM
